We go through 14 compounds from patent US11958861B2, “Spirocyclic lactams as JAK2 V617F inhibitors” (Incyte Corporation, priority 2021, dated 2024).

pIC50: −log10 of the molar value. Structures can show the parent of a compound that is named as a salt.

Test [1] concerns the target T1, pseudo-kinase domain (JH2, amino-acids 536-812) of human V617F mutant JAK2 (Homo sapiens, UniProt O60674, F794H/V617F/W659A/W777A).
T1 construct: pseudo-kinase domain (JH2, amino-acids 536-812 with 3 surface mutations W659A, W777A, F794H); purchased BPS Bioscience 79498; host or cells: baculovirus expression system
As to the kind of experiment: JAK2 LanthaScreen JH2-V617F Binding Assay. Conditions: 1 hour at 25° C. An outline of the steps: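 TR-FRET tracer displacement: 0.26 nM protein, 50 nM tracer, 0.25 nM SA-Tb, 50 mM Tris pH 7.5, 10 mM MgCl2, 5 mM DTT; 1 h, 25° C. NSB = 2 mM ATP. IC50, 4-parameter curve.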
For orientation: TR-FRET usually uses a lanthanide donor and a delayed reading to cut background.

Test [2] concerns the target T2, pseudo-kinase domain (JH2, amino-acids 536-812) of human Wild Type JAK2 (Homo sapiens, UniProt O60674, F794H/W659A/W777A).
T2 construct: pseudo-kinase domain (JH2, amino-acids 536-812 with 3 surface mutations W659A, W777A, F794H); purchased BPS Bioscience 79463; host or cells: baculovirus expression system
Description: JAK2 LanthaScreen JH2-WT Binding Assay. Conditions: 1 hour at 25° C. In short, it runs like this: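 Biotinylated C-terminal His-Avi-tagged JH2 (residues 536-812, baculovirus-expressed) at 0.145 nM was incubated with serially diluted compounds, 50 nM fluorescent JAK2-JH2 tracer and 0.25 nM streptavidin-Tb cryptate in pH 7.5 Tris buffer with MgCl2, Brij-35, BSA, EGTA, glycerol and DTT. LanthaScreen TR-FRET was read after 1 hour at 25° C; IC50 came from four-parameter fits.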

Test [3] deals with T3, catalytic domain (JH1, amino acids 826-1132) of human JAK2 (Homo sapiens, UniProt O60674).
T3 construct: catalytic domain (JH1, amino acids 826-1132) of human JAK2; purchased Carna Biosciences 08-445-20N; host or cells: baculovirus expression system
Description: JAK2 LanthaScreen JH1 Binding Assay. Conditions: 2 hours at 25° C. An outline of the steps: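 Reaction held 1.5 nM biotinylated FLAG-JAK2 JH1, 50 nM tracer and 0.5 nM streptavidin-Tb in pH 7.5 Tris buffer; 2 mM ATP defined nonspecific binding.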

In test [4] the target is T4, catalytic domain (JH1, amino acids 808-1132) of human JAK2 (Homo sapiens, UniProt O60674).
T4 construct: catalytic domain (JH1, amino acids 808-1132) of human JAK2; His (N); purchased BPS Bioscience 40450; host or cells: baculovirus expression system
As to the kind of experiment: JAK2 HTRF Enzyme Activity Assay. In kind it is biochemical. Particulars: ATP 30 μM, read-out: ENZ 30UMATP. In short, it runs like this:
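IC50 values come from a four-parameter fit of HTRF signal (Eu-PY20 antibody/streptavidin-APC, EDTA-quenched). Reaction: 0.015 nM N-His JAK2 catalytic domain (baculovirus), 500 nM biotin-peptide, 30 μM or 1 mM ATP, Tris pH 7.5 buffer, 60 min, 25° C.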

T4 sequence (O60674 808-1132): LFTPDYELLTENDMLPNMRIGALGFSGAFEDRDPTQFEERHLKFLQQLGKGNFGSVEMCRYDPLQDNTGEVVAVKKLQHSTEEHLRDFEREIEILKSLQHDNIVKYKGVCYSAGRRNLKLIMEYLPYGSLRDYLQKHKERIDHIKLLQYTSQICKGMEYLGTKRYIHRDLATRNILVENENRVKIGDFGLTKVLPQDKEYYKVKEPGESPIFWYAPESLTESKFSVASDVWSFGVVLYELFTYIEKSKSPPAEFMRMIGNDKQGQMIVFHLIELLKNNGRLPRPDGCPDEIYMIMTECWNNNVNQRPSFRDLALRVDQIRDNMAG
T1 sequence (O60674 536-812 V617F/W659A/W777A/F794H): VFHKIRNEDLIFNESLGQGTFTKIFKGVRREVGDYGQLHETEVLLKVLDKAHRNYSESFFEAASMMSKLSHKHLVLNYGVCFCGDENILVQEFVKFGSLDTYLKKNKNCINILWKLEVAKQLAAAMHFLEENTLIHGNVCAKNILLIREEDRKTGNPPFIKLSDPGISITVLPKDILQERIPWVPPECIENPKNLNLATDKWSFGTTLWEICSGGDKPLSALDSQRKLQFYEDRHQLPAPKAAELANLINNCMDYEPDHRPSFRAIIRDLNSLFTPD
T3 sequence (O60674 826-1132): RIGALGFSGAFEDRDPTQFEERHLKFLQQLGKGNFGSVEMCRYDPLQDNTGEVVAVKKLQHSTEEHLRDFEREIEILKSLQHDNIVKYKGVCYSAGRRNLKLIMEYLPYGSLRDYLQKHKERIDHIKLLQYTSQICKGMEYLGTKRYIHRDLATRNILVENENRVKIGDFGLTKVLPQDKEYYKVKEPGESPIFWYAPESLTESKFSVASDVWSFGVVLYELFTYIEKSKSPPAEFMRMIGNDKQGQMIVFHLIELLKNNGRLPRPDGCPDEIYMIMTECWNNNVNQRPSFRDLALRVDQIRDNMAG
T2 sequence (O60674 536-812 W659A/W777A/F794H): as the sequence (O60674 536-812 V617F/W659A/W777A/F794H) above, with F82V counted along it

With `CN1C(=O)C2(CCC2)c2c1cnc1[nH]c(-c3ccc(CN4CCC(S(C)(=O)=O)CC4)cc3)c(-c3ccccc3)c21` [Example 10, 6′-Methyl-2′-(4-((4-(methylsulfonyl)piperidin-1-yl)methyl)phenyl)-1′-phenyl-3′,6′-dihydro-7′H-spiro[cyclobutane-1,8′-dipyrrolo[2,3-b:3′,2′-d]pyridin]-7′-one trifluoroacetate salt], the pIC50 was at least 7.00 in test [1], at least 7.00 in test [2], under 5.60 in test [3] and under 5.60 in test [4].

Turning to `CN1C(=O)C2(CCCCC2)c2c1cnc1[nH]c(-c3ccc(CN4CCC(S(C)(=O)=O)CC4)cc3)c(-c3ccccc3)c21` [Example 11, 6′-Methyl-2′-((4(4-(methylsulfonyl)piperidin-1-yl)methyl)phenyl)-1′-phenyl-3′,6′-dihydro-7′H-spiro[cyclohexane-1,8′-dipyrrolo[2,3-b:3′,2′-d]pyridin]-7′-one trifluoroacetate salt], the pIC50 in test [1] is 6.30 to 7.00; in test [2], 6.30 to 7.00; in test [3] it was under 5.60; in test [4] it was under 5.60.

On to `CC(=O)N1C2CCC1CC1(C2)C(=O)N(C)c2cnc3[nH]c(-c4ccc(CN5CCC(S(C)(=O)=O)CC5)cc4)c(-c4ccccc4)c3c21` (centres unmarked) [Example 13, 8-Acetyl-6′-methyl-2′-((4(4-(methylsulfonyl)piperidin-1-yl)methyl)phenyl)-1′-phenyl-3′,6′-dihydro-7′H-8-azaspiro[bicyclo[3.2.1]octane-3,8′-dipyrrolo[2,3-b:3′,2′-d]pyridin]-7′-one trifluoroacetate salt], for which the pIC50 in test [1] was 6.30 to 7.00; in test [2], at least 7.00; in test [3], 5.60 to 5.90; in test [4] it was 5.60 to 5.90.

As to `CN1C(=O)C2(CCN(c3ccncn3)CC2)c2c1cnc1[nH]c(-c3ccc(CN4CCC(S(C)(=O)=O)CC4)cc3)c(-c3ccccc3)c21` [Example 15, 6-Methyl-2-(4-((4-(methylsulfonyl)piperidin-1-yl)methyl)phenyl)-1-phenyl-1′-(pyrimidin-4-yl)-3,6-dihydro-7H-spiro[dipyrrolo[2,3-b:3′,2′-d]pyridine-8,4′-piperidin]-7-one, trifluoroacetate salt], the pIC50 is at least 7.00 in test [1], at least 7.00 in test [2], under 5.60 in test [3] and under 5.60 in test [4].

Turning to `CN1C(=O)C2(CC3CCC(C2)N3c2ccncn2)c2c1cnc1[nH]c(-c3ccc(CN4CCC(S(C)(=O)=O)CC4)cc3)c(-c3ccccc3)c21` [Example 16, (1R,3r,5S)-6′-Methyl-2′-((4(4-(methylsulfonyl)piperidin-1-yl)methyl)phenyl)-1′-phenyl-8-(pyrimidin-4-yl)-3′,6′-dihydro-7′H-8-azaspiro[bicyclo[3.2.1]octane-3,8′-dipyrrolo[2,3-b:3′,2′-d]pyridin]-7′-one, trifluoroacetate salt], the pIC50 in test [1] was at least 7.00; in test [2], at least 7.00; in test [3], under 5.60; in test [4], under 5.60.

Regarding `Cc1ncc(-c2c(-c3cnn(C)c3)[nH]c3ncc4c(c23)C2(CCN(c3ccncn3)CC2)C(=O)N4C)s1` [Example 17, 6-Methyl-2-(1-methyl-1H-pyrazol-4-yl)-1-(2-methylthiazol-5-yl)-1′-(pyrimidin-4-yl)-3,6-dihydro-7H-spiro[dipyrrolo[2,3-b:3′,2′-d]pyridine-8,4′-piperidin]-7-one, trifluoroacetate salt], the pIC50 in test [1] was 6.30 to 7.00; in test [2], 6.30 to 7.00; in test [3], under 5.60; in test [4], under 5.60.

Take `C=Cc1c(-c2cnn(C)c2)[nH]c2ncc3c(c12)C1(CCN(c2ccncn2)CC1)C(=O)N3C` [Example 18, 6-Methyl-2-(1-methyl-1H-pyrazol-4-yl)-1′-(pyrimidin-4-yl)-1-vinyl-3,6-dihydro-7H-spiro[dipyrrolo[2,3-b:3′,2′-d]pyridine-8,4′-piperidin]-7-one, trifluoroacetate salt]: the pIC50 in test [1] was 5.60 to 5.90; in test [2] it was 5.90 to 6.30; in test [3], under 5.60; in test [4], under 5.60.

`CCc1c(-c2cnn(C)c2)[nH]c2ncc3c(c12)C1(CCN(c2ccncn2)CC1)C(=O)N3C` [Example 19, 1-Ethyl-6-methyl-2-(1-methyl-1H-pyrazol-4-yl)-1′-(pyrimidin-4-yl)-3,6-dihydro-7H-spiro[dipyrrolo[2,3-b:3′,2′-d]pyridine-8,4′-piperidin]-7-one, trifluoroacetate salt]: the pIC50 in test [1] was 6.30 to 7.00; in test [2], 6.30 to 7.00; in test [3], 5.60 to 5.90; in test [4] it was 5.60 to 5.90.

For the compound `CN1C(=O)C2(CCN(c3ccncn3)CC2)c2c1cnc1[nH]c(-c3cnn(C)c3)c(C3=CCOCC3)c21` [Example 20, 1-(3,6-Dihydro-2H-pyran-4-yl)-6-methyl-2-(1-methyl-1H-pyrazol-4-yl)-(1-(pyrimidin-4-yl)-3,6-dihydro-7H-spiro[dipyrrolo[2,3-b:3′,2′-d]pyridine-8,4′-piperidin]-7-one, trifluoroacetate salt], the pIC50 was 6.30 to 7.00 in test [1], 6.30 to 7.00 in test [2], under 5.60 in test [3] and under 5.60 in test [4].

As for `COc1cccc(NC(=O)N2CCC3(CC2)C(=O)N(C)c2cnc4[nH]c(-c5ccc(CN6CCC(S(C)(=O)=O)CC6)cc5)c(-c5ccccc5)c4c23)c1` [Example 21, N-(3-Methoxyphenyl)-6-methyl-2-(4-((4-(methylsulfonyl)piperidin-1-yl)methyl)phenyl)-7-oxo-1-phenyl-6,7-dihydro-3H-spiro[dipyrrolo[2,3-b:3′,2′-d]pyridine-8,4′-piperidine]-1′-carboxamide, trifluoroacetate salt], the pIC50 in test [1] was at least 7.00; in test [2] it was at least 7.00; in test [3] it was under 5.60; in test [4], under 5.60.

Take `CN1C(=O)C2(CCCC2)c2c1cnc1[nH]c(-c3cnn(C)c3)c(-c3ccc(CN4CCN(S(C)(=O)=O)CC4)cc3)c21` [Example 22, 6′-Methyl-2′-(1-methyl-1H-pyrazol-4-yl)-1′-(4-((4-(methylsulfonyl)piperazin-1-yl)methyl)phenyl)-3′,6′-dihydro-7′H-spiro[cyclopentane-1,8′-dipyrrolo[2,3-b:3′,2′-d]pyridin]-7′-one, trifluoroacetate salt]: the pIC50 in test [1] was 6.30 to 7.00; in test [2] it was at least 7.00; in test [3], under 5.60; in test [4], under 5.60.

For `CCS(=O)(=O)N1CC(CC#N)(N2CCC3(CC2)C(=O)N(C)c2cnc4[nH]c(-c5cnn(C)c5)c(-c5ccccc5)c4c23)C1` [Example 23, 2-(1-(Ethylsulfonyl)-3-(6-methyl-2-(1-methyl-1H-pyrazol-4-yl)-7-oxo-1-phenyl-6,7-dihydro-3H-spiro[dipyrrolo[2,3-b:3′,2′-d]pyridine-8,4′-piperidin]-1′-yl)azetidin-3-yl)acetonitrile, trifluoroacetate salt], the pIC50 in test [1] is at least 7.00; in test [2], at least 7.00; in test [3], 5.90 to 6.30; in test [4], 6.30 to 7.00.

As to `CC(=O)N1CC(CC#N)(N2CCC3(CC2)C(=O)N(C)c2cnc4[nH]c(-c5cnn(C)c5)c(-c5ccccc5)c4c23)C1` [Example 24, 2-(1-Acetyl-3-(6-methyl-2-(1-methyl-1H-pyrazol-4-yl)-7-oxo-1-phenyl-6,7-dihydro-3H-spiro[dipyrrolo[2,3-b:3′,2′-d]pyridine-8,4′-piperidin]-1′-yl)azetidin-3-yl)acctonitrile, trifluoroacetate salt], the pIC50 in test [1] was at least 7.00; in test [2] it was at least 7.00; in test [3], 5.90 to 6.30; in test [4] it was 6.30 to 7.00.

As to `CCNC(=O)N1CC(CC#N)(N2CCC3(CC2)C(=O)N(C)c2cnc4[nH]c(-c5cnn(C)c5)c(-c5ccccc5)c4c23)C1` [Example 25, 3-(Cyanomethyl)-N-ethyl-3-(6-methyl-2-(1-methyl-1H-pyrazol-4-yl)-7-oxo-1-phenyl-6,7-dihydro-3H-spiro[dipyrrolo[2,3-b:3′,2′-d]pyridine-8,4′-piperidin]-1′-yl)azetidine-1-carboxamide, trifluoroacetate salt], the pIC50 was at least 7.00 in test [1], at least 7.00 in test [2], 5.90 to 6.30 in test [3] and 6.30 to 7.00 in test [4].
